# Test results reported in paper PMC8537988, “Re-Use of Caco-2 Monolayers in Permeability Assays—Validation Regarding Cell Monolayer Integrity” (Pharmaceutics, 2021).
# Test system: Caco-2 monolayers
# Experiment: Apical to basolateral permeability of LY through Caco-2 monolayers (Transwell, 12-well)
# Format: in vitro ADME, human
# Conditions: for LY Papp, µ directly from Papp / LY Papp, µ best fit of Normal distribution to Papp: single sampling at 60 min
# Procedure: Caco-2 cells culture and monolayers preparation was as described in the reference protocol. Cells were maintained in T75 cm^2 flasks in culture medium (DMEM supplemented with 1% (v/v) NEAA, 10% (v/v) heat-inactivated FBS), in a humidified atmosphere of 5% CO2 at 37 °C. As recommended in the reference protocol, the permeability assays were performed using cells in passages 95–105. The cells were thawed on passage 89 and sub-cultured twice a week at or shortly before 90% confluency by a 1:8 split. To avoid seeding aggregated cells and the formation of multilayers in Transwell™ inserts, the cell clusters were disaggregated into single cells by passing them 3 times through a syringe needle of 23 gauges (BD Falcon) before cell counting. Caco-2 cells were seeded at 2.6 × 10^5 cells/cm^2 on 12-well polycarbonate filter inserts. The culture medium (with 1% (v/v) Pen/Strep) was replaced by fresh medium 6 h following seeding and then every 2–3 days thereafter until transport experiments.
# The reference protocol was followed in the permeability assays, with slight modifications as required by the new experimental approach. Manipulation of the cell monolayers was conducted under sterile conditions (in the laminar flow hood or incubator). At the day of the experiments, the culture medium was removed and HBSS (further supplemented with 25 mM HEPES, 0.35 g/L sodium bicarbonate, pH 7.4) pre-warmed to 37 °C was added to the donor (0.5 mL) and receiver (1.5 mL) sides to wash the cell monolayers. The plate containing the inserts was placed (lid-covered) in an incubator without CO2 at 37 °C with an orbital shaker (IKA-Schüttler MTS4, JMGS, Lisboa, Portugal) at 50 rpm for 8 min. The washing step was repeated with new HBSS. The TEER was measured in HBSS at 37 °C using a Millicell® ERS-2 voltmeter equipped with a chopstick electrode pair (Merck, Lisboa, Portugal). A filter insert without cells was included in each set of experiments for correction of the TEER value for the background resistance. The resistance values (Ω cm^2) of the cell monolayers were obtained by subtracting the TEER value from blank inserts and multiplying by the surface area of the insert. All cell monolayers presented TEER values above 200 Ω cm^2. At least one insert of the set was fixed and stained for confocal microscopy analysis (see next section). The remaining ones were used to perform the apical to basolateral permeability assays with the paracellular marker LY. For this, the donor HBSS washing solution was decanted, and the inserts were placed into empty wells of a fresh 12-well plate. The permeability assay was initiated with the addition of 450 µL of the LY solution (20 µM in HBSS at 37 °C) simultaneously to the donor compartments of 3 to 4 insert, from which a 50 µL aliquot was immediately collected and stored for the calculation of the solute concentration in the donor compartment at t = 0. The inserts containing the LY solution were subsequently positioned in a pre-prepared 12-well plate containing HBSS (1.2 mL per well), and the lid-covered plate was placed on the incubator (without CO2, 50 rpm and 37 °C). At the defined sampling times, the plate was positioned into the laminar flow hood and the inserts were transferred into new wells containing fresh HBSS. The high fluorescence quantum yield of LY allows its detection by […], even for the very small amount expected to permeate during short permeation intervals. In this work we used 10, 20, 30, and 60 min or 60 min only as sampling times. At the end of the assay, inserts were transferred to empty wells and 50 µL was taken from the donor compartment for the calculation of the solute mass balance. The remaining solution was decanted, the inserts were placed on new wells containing 1.5 mL of pre-warm HBSS, and 0.5 mL of pre-warmed HBSS was added to each insert for TEER measurements. Some selected monolayers were prepared for microscopy; the remaining were incubated with culture media for re-use, as described below. […]
substance,measurement,setting,value
Lucifer yellow CH di-potassium salt [LY],"LY QA, µ from Log(QA)","day 25, re-use, 4th 30 min (16)",0.38%
same,"LY QA, µ from Log(QA)","day 25, re-use, all 1st samplings (39)",0.20%
same,"LY QA, µ from Log(QA)","day 25, single use & re-use, 1st 10 min (22)",0.19%
same,"LY QA, µ from Log(QA)","day 25, single use & re-use, 1st 60 min (29)",0.18%
same,"LY QA, µ from Log(QA)","day 25, single use & re-use, 2nd 10 min (22)",0.25%
same,"LY QA, µ from Log(QA)","day 25, single use & re-use, 3rd 10 min (22)",0.25%
same,"LY QA, µ from Log(QA)","day 25, single use & re-use, 4th 30 min (22)",0.36%
same,"LY QA, µ from Log(QA)","day 25, single use & re-use, all 1st samplings (51)",0.18%
same,"LY QA, µ from Log(QA)","day 25, single use & re-use, all samplings (117)",0.23%
same,"LY Papp, µ directly from Papp","day 25, single use (6)",2.1 10^-7 cm/s
same,"LY QA, µ from Log(QA)","day 25, single use, 1st 10 min (6)",0.12%
same,"LY QA, µ from Log(QA)","day 25, single use, 1st 60 min (6)",0.18%
same,"LY QA, µ from Log(QA)","day 25, single use, 2nd 10 min (6)",0.19%
same,"LY QA, µ from Log(QA)","day 25, single use, 3rd 10 min (6)",0.20%
same,"LY QA, µ from Log(QA)","day 25, single use, 4th 30 min (6)",0.31%
same,"LY QA, µ from Log(QA)","day 25, single use, all 1st samplings (12)",0.15%
same,"LY Papp, µ best fit of Normal distribution to Papp","day 28, all (24)",1.8 10^-7 cm/s
same,"LY Papp, µ directly from Papp","day 28, all (24)",2.2 10^-7 cm/s
same,"QA (%), µ, LY transported during first sampling interval","day 28, batch 1, passage 95, re-use, one-time sampling (60 min)",0.33%
same,"QA (%), µ, LY transported during first sampling interval","day 28, batch 1, passage 95, single use, one-time sampling (60 min)",0.39%
same,"QA (%), µ, LY transported during first sampling interval","day 28, batch 1, passage 98, single use, multi-time sampling (10 min)",0.09%
same,"QA (%), µ, LY transported during first sampling interval","day 28, batch 1, passage 100, re-use, multi-time sampling (10 min)",0.09%
same,"QA (%), µ, LY transported during first sampling interval","day 28, batch 1, passage 104, single use, multi-time sampling (10 min)",0.23%
same,"QA (%), µ, LY transported during first sampling interval","day 28, batch 1, passage 105, re-use, multi-time sampling (10 min)",0.06%
same,"QA (%), µ, LY transported during first sampling interval","day 28, batch 2, passage 95, re-use, one-time sampling (60 min)",0.11%
same,"QA (%), µ, LY transported during first sampling interval","day 28, batch 2, passage 98, single use, one-time sampling (60 min)",0.26%
same,"QA (%), µ, LY transported during first sampling interval","day 28, batch 3, passage 95, re-use, one-time sampling (60 min)",0.17%
same,"LY Papp, µ best fit of Normal distribution to Papp","day 28, re-use (18)",1.4 10^-7 cm/s
same,"LY Papp, µ directly from Papp","day 28, re-use (18)",1.8 10^-7 cm/s
same,"LY QA, µ from Log(QA)","day 28, re-use, 1st 10 min (10)",0.07%
same,"LY QA, µ from Log(QA)","day 28, re-use, 1st 60 min (18)",0.16%
same,"LY QA, µ from Log(QA)","day 28, re-use, 2nd 10 min (10)",0.08%
same,"LY QA, µ from Log(QA)","day 28, re-use, 3rd 10 min (8)",0.11%
same,"LY QA, µ from Log(QA)","day 28, re-use, 4th 30 min (10)",0.19%
same,"LY QA, µ from Log(QA)","day 28, re-use, all 1st samplings (28)",0.12%
same,"LY QA, µ from Log(QA)","day 28, single use & re-use, 1st 10 min (16)",0.09%
same,"LY QA, µ from Log(QA)","day 28, single use & re-use, 1st 60 min (24)",0.19%
same,"LY QA, µ from Log(QA)","day 28, single use & re-use, 2nd 10 min (16)",0.10%
same,"LY QA, µ from Log(QA)","day 28, single use & re-use, 3rd 10 min (14)",0.13%
same,"LY QA, µ from Log(QA)","day 28, single use & re-use, 4th 30 min (16)",0.20%
same,"LY QA, µ from Log(QA)","day 28, single use & re-use, all 1st samplings (40)",0.14%
same,"LY QA, µ from Log(QA)","day 28, single use & re-use, all samplings (86)",0.14%
same,"LY Papp, µ directly from Papp","day 28, single use (6)",3.3 10^-7 cm/s
same,"LY QA, µ from Log(QA)","day 28, single use, 1st 10 min (6)",0.15%
same,"LY QA, µ from Log(QA)","day 28, single use, 1st 60 min (6)",0.32%
same,"LY QA, µ from Log(QA)","day 28, single use, 2nd 10 min (6)",0.14%
same,"LY QA, µ from Log(QA)","day 28, single use, 3rd 10 min (6)",0.15%
same,"LY QA, µ from Log(QA)","day 28, single use, 4th 30 min (6)",0.24%
same,"LY QA, µ from Log(QA)","day 28, single use, all 1st samplings (12)",0.22%
